The values below come from patent US7598377B2, “Inhibition of phosphoinositide 3-kinase β” (AstraZeneca AB, priority 2002, dated 2009).

One assay concerns the target T1, p110δ-PI3K (Homo sapiens, UniProt O00329).
T1 construct: from tissue; host or cells: washed platelets (lysate, immunoprecipitated with anti-p110δ antibody)
As to the kind of experiment: In vitro enzyme assay, p110δ immunoprecipitated from platelet lysate (Biological Example 1). The assay is classed as biochemical. The conditions noted are these: Table I; read-out: inhibitory concentration, delta. The procedure:
(§1) For each immunoprecipitation, 1 mg of lysate was incubated with an anti-p110α (1 μg), anti-p110β (1 μg), anti-p110δ (1 μg) or anti-PI4 kinase antibody (2-5 μg) and 50 μl of a 50% slurry of protein A beads overnight at 4° C. […] For PI4 kinase assays, protein A beads-immune complexes were also washed twice with lysis buffer, prior to two washes with 1× PI4 kinase assay buffer (20 mM Hepes, pH 7.5, 10 mM MgCl2, 0.3% Triton X-100) and the addition of other assay constituents, as described above. All reactions were terminated by the addition of 100 μl 1 M HCl, 200 μl choloroform/methanol (1:1) and 500 μl 2 M KCl and lipids extracted by centrifugation at 15,000×g for 2 minutes. The production of PI3 or PI4 kinase lipid products, PtdIns(3)P and PtdIns(4)P, were confirmed through TLC analysis. The lipid spots were then removed from the TLC plate and the level of radioactivity quantified to accurately determine the level of PtdIns(3)P/PtdIns(4)P production.

The target in another assay is T2, p110β-PI3K (Homo sapiens, UniProt P42338).
T2 construct: The α and β isoforms of the PI3K were immunoprecipitated from a platelet lysate; from tissue; host or cells: washed platelets (lysate, immunoprecipitated with anti-p110β antibody)
As to the kind of experiment: In vitro enzyme assay, p110β immunoprecipitated from platelet lysate (Biological Example 1). The assay is classed as biochemical. The conditions noted are these: Table I; for IC50: read-out: inhibitory concentration, beta. The procedure:
as §1, with “The production of PI3 or PI4 kinase lipid products, PtdIns(3)P and PtdIns(4)P, were confirmed through TLC analysis.” left out

A further assay deals with T3, p110α-PI3K (Homo sapiens, UniProt P42336).
T3 construct: The α and β isoforms of the PI3K were immunoprecipitated from a platelet lysate; from tissue; host or cells: washed platelets (lysate, immunoprecipitated with anti-p110α antibody)
Description: In vitro enzyme assay, p110α immunoprecipitated from platelet lysate (Biological Example 1). It is filed as biochemical. The conditions noted are these: Table I; read-out: inhibitory concentration, alpha. The procedure: as §1

The next assay concerns the target p110γ-PI3K (Homo sapiens, UniProt P48736). As to the kind of experiment: In vitro enzyme assay, p110γ recombinant protein (Biological Example 1). The assay is classed as biochemical. The conditions noted are these: Table I; read-out: inhibitory concentration, gamma. From the text:
Reactions were terminated and lipid products analysed as described above for the other PI 3-kinase isoforms assays.

Assay [1] deals with platelets on immobilized vWf. Description: In vitro flow studies: platelet calcium flux and adhesion on immobilized vWf. The conditions noted are these: vWf matrix, shear rate gradient up to 10,000 s^−1 over 1 s. The assay is classed as cell-based. The procedure: The use of an in vitro-flow based adhesion assay enables us to simultaneously analyze platelet adhesion dynamics and activation (by monitoring cytosolic calcium flux) on immobilized von Willebrand factor (vWf). Briefly, isolated platelets are perfused through vWf (100 μg/ml) coated microcapillary tubes and analysis of cytosolic calcium flux conducted in real-time by confocal microscopy.
Washed platelets (1.5×10^9) suspended in PWB were incubated with the calcium indicator dyes, Oregon Green 488 BAPTA-1, AM (1 μM) and Fura Red, AM (1.25 μM), for 30 min at 37° C. Platelets were washed twice with PWB prior to being resuspended in Tyrode's buffer containing 1 mM calcium.
For static adhesion assays, platelets were allowed to settle on the surface of vWf-coated coverslips for 30 min at 37° C. For flow assays, platelets were either perfused over a vWf-coated microcapillary tube at a constant shear rate of 600, 1800 or 10,000 s^−1 or allowed to settle on the surface of a vWf-coated microcapillary tube prior to being accelerated through a shear gradient of 10,000 s^−1 over a 1 s interval. Real time platelet calcium flux in individual platelets was monitored at 1 s intervals over the 30 min incubation period or at 0.586 s intervals for up to 175 s for static and flow-based assays, respectively.

Molecules are shown by their SMILES.

T2 sequence (P42338 whole entry, canonical isoform): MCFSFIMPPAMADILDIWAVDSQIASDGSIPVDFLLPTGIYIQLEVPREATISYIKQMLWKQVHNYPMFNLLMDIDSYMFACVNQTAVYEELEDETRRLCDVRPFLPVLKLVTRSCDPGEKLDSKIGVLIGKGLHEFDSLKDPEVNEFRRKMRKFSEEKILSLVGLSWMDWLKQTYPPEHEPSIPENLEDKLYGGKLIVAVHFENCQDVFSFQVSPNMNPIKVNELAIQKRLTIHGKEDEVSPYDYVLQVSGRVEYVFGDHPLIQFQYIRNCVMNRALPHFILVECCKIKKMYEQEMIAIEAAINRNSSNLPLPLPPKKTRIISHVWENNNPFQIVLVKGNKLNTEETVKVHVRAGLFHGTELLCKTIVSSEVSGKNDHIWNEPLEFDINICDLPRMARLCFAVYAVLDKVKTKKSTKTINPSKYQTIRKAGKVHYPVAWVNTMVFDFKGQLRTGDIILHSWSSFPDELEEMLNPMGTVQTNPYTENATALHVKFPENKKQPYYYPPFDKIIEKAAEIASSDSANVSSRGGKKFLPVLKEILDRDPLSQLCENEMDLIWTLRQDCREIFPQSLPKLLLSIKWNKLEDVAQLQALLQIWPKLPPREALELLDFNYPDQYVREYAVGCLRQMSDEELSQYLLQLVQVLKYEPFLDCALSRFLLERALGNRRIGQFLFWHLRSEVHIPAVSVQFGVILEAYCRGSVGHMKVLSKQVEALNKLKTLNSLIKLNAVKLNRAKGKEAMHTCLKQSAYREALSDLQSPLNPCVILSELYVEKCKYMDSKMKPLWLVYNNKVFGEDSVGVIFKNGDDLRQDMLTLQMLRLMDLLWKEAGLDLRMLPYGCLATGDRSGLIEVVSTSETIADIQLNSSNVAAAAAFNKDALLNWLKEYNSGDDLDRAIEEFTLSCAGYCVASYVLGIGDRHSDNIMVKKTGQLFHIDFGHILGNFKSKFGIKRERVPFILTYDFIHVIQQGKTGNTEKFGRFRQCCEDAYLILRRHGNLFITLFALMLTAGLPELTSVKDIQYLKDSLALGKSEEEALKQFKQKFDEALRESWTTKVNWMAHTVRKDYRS
T2 sequence (P27986 whole entry partner, canonical isoform): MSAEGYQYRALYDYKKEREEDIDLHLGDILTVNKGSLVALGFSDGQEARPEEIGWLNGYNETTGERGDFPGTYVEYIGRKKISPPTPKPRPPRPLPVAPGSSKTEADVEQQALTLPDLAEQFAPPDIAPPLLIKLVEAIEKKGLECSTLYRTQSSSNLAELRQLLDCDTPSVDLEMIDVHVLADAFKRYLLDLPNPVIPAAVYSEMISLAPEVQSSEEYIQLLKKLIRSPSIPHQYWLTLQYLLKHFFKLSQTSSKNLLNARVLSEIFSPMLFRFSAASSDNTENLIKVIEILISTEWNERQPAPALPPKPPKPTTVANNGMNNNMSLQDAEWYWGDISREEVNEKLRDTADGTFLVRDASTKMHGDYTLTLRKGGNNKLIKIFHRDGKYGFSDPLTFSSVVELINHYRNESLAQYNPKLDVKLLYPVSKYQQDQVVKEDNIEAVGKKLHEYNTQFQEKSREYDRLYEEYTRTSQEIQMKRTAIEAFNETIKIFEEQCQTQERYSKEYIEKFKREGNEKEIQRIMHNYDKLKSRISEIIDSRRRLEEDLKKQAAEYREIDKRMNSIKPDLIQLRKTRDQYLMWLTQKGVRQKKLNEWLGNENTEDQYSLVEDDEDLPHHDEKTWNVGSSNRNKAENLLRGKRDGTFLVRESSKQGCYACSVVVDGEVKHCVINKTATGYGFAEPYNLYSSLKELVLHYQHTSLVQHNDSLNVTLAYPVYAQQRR
T3 sequence (P42336 whole entry, canonical isoform): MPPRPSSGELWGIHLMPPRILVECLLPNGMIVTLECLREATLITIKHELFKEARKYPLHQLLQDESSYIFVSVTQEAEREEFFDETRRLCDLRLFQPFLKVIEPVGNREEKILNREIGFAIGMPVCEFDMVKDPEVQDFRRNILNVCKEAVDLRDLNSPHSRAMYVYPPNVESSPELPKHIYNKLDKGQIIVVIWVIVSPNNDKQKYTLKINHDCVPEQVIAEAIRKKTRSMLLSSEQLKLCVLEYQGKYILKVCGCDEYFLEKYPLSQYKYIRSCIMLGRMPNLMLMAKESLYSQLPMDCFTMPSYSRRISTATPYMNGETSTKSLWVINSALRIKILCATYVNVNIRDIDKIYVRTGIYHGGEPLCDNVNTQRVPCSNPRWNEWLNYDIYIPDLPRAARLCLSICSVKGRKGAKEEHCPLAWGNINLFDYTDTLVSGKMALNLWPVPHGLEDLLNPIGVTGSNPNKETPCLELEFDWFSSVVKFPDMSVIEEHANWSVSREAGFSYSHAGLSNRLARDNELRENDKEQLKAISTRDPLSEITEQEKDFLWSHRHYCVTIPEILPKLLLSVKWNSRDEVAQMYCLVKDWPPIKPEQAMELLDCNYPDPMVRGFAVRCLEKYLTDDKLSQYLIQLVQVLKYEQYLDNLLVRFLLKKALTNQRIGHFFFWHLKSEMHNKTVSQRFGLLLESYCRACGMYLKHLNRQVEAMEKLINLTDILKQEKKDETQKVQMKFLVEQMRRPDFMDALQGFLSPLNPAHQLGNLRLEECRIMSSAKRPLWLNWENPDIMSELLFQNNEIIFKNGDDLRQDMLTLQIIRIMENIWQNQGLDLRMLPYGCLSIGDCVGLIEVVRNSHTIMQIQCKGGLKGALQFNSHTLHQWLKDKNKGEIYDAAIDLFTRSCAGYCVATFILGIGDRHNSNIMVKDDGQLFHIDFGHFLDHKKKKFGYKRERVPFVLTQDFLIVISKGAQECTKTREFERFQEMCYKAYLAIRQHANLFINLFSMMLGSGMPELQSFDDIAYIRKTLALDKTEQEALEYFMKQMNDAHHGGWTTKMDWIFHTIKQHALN
T3 sequence (P27986 whole entry partner, canonical isoform): as the sequence (P27986 whole entry partner, canonical isoform) above
T1 sequence (O00329 whole entry): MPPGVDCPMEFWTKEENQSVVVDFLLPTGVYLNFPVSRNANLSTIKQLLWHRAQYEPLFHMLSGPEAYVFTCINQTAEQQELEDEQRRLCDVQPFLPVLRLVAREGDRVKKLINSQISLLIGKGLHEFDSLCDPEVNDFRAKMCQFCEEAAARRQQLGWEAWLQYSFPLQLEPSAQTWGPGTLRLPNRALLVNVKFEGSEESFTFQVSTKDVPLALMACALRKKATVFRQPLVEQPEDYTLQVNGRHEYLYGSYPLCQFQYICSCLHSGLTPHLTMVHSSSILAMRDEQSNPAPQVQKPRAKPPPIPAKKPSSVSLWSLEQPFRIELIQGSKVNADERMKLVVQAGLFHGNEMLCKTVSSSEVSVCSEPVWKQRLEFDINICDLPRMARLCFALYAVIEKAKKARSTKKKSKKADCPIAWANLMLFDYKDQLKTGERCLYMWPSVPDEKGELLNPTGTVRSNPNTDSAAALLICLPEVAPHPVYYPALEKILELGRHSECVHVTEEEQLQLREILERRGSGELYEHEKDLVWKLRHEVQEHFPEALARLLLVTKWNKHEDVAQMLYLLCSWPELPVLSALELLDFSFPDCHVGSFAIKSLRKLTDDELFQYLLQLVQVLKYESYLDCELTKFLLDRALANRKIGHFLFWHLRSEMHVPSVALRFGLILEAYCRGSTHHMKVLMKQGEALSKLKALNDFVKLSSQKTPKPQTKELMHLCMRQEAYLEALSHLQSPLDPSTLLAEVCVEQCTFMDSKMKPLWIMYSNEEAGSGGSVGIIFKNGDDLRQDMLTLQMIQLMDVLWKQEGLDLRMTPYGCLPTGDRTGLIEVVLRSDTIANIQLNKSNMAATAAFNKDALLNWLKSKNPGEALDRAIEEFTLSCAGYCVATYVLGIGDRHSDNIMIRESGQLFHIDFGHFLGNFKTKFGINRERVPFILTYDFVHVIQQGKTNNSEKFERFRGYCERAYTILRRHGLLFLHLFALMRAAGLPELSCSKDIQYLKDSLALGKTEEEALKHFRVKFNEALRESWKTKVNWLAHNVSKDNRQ
T1 sequence (P27986 whole entry partner): as the sequence (P27986 whole entry partner, canonical isoform) above
Sequence of p110γ-PI3K (P48736 whole entry, canonical isoform): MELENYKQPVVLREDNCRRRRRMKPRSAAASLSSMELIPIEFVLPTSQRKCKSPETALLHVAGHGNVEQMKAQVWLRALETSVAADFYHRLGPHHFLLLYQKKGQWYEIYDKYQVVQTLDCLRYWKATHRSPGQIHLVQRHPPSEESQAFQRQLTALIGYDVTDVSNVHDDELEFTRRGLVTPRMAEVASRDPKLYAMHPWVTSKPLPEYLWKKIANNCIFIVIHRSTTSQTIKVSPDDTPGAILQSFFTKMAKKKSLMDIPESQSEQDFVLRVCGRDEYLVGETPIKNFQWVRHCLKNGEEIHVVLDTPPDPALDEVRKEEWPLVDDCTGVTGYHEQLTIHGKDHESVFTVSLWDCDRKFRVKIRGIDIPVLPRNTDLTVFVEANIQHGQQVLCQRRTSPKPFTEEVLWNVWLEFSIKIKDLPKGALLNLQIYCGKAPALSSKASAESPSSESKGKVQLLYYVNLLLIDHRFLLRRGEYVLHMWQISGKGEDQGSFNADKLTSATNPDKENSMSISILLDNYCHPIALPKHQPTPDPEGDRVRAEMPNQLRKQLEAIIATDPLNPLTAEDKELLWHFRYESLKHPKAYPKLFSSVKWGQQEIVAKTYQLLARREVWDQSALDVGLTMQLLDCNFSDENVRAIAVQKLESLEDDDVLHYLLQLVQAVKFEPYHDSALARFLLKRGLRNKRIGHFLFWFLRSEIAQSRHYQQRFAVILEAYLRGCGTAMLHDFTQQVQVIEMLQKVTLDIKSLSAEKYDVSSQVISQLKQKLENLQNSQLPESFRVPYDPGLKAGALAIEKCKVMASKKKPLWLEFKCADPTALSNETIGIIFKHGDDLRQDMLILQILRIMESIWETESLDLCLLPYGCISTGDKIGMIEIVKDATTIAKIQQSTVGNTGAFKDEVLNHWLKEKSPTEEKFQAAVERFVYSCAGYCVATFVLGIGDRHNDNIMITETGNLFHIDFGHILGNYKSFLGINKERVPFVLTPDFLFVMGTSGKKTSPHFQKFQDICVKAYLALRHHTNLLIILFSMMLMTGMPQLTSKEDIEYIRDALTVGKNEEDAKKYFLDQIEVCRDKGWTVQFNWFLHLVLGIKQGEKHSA

For the compound `Cc1cc(C(C)Nc2cccc(C(F)(F)F)c2)c2nc(N3CCOCC3)cc(=O)n2c1` (racemic) [TGX-264, (±)-7-methyl-2-morpholin-4-yl-9-[1-(3-trifluoromethylphenylamino)ethyl]-pyrido[1,2-a]pyrimidin-4-one], the IC50 was 10 µM on p110δ-PI3K, 0.075 µM at p110β-PI3K, above 5 µM on p110α-PI3K and above 5 µM at p110γ-PI3K. Also, the “Ratio δ/β” value on p110β-PI3K amounted to 133.33.
Regarding `Cc1cc(C(C)Nc2ccccn2)c2nc(N3CCOCC3)cc(=O)n2c1` (racemic) [TGX-295, (±)-7-methyl-2-morpholin-4-yl-9-[1-(2-pyridinylamino)ethyl]-pyrido[1,2-a]pyrimidin-4-one], the IC50 at p110δ-PI3K was 2 µM; on p110β-PI3K, 0.05 µM; at p110α-PI3K, above 5 µM; on p110γ-PI3K, above 5 µM. The “Ratio δ/β” value on p110β-PI3K worked out at 40.00.
Turning to `COC[C@H]1OC(=O)c2coc3c2[C@@]1(C)C1=C(C3=O)[C@@H]2CCC(=O)[C@@]2(C)C[C@H]1OC(C)=O` [wortmannin, reference compound], the “platelet responses to accelerated shear” value in assay [1] was “eliminates platelet responses to accelerated shear”.
